Laboratory results reported in ChEMBL document CHEMBL3507680, “University of Dundee, Gates Library screen for HepG2 cell viability”.

Assay: Human HepG2 cell viability assay in 384 well format
Type: toxicity, cell-based
Design: dose 125 nL, time 70.5 hour; cytotoxicity at 70.5 h: concentration not given beside the values
Conditions: HepG2 cells, read-out: Inhibition

| SMILES | cytotoxicity at 70.5 h [%] |
| --- | --- |
| CN(C)S(=O)(=O)Nc1ccc(-n2nncc2C(F)(F)F)cc1 | 3.32 |
| OCCN1CCC(CNCCOCC(F)(F)F)CC1 | 3.98 |
| Cc1cncc(C2CCCN2CC(N)=O)n1 (stereo unspecified) | -2.96 |
| COc1cccc(CN(C)C(=O)CCC(=O)c2ccc(Cl)cc2)c1OC | -10.4 |
| CS(=O)(=O)N1CCCN(c2nccn3cnnc23)CC1 | -6.97 |
| CC(c1ncc(-c2ccccc2)o1)N1CCN(C(=O)C(C)(C)C)CC1 (stereo unspecified) | -25.9 |
| CN(C)c1nccc(C2CN(c3cnccn3)CCO2)n1 (stereo unspecified) | 13.3 |
| Cc1nn(C)cc1CN1CCN(CC2(c3ccccc3)CC2)CC1 | -1.67 |
| CN1CCCN(C(C(=O)O)c2ccc3c(c2)OCO3)CC1 (stereo unspecified) | 0.827 |
| CC(C)(NC(=O)c1cnc(C(C)(C)C)s1)C(N)=O | 28.5 |
| CC(=O)N1CCCN(C(C(=O)O)c2ccccc2OC(F)(F)F)CC1 (stereo unspecified) | -7.53 |
| Cc1ccc(N2CCCC(Nc3nn4cc(C)nc4s3)C2)nn1 (stereo unspecified) | -9.29 |
| O=C(c1cc(-n2cccn2)ccn1)N(CC1CCC1)CC(F)(F)F | -3.45 |
| Cn1ccc(C(=O)N(CC(F)(F)F)c2cccc(Cl)c2)cc1=O | 11.6 |
| COc1ccc(CC(=O)Nc2ccc3ncn(C(C)C)c(=O)c3c2)cc1 | -5.16 |
| Cc1cc(C(=O)NCc2ccc(N3CCN(C)CC3)nc2)c(C)s1 | -12.2 |
| CC(=O)N1CCC2(CC1)CC[C@@]1(C(=O)N(C)C)CN(S(C)(=O)=O)C[C@@H]21 | 27.7 |
| O=C(c1ccsc1)N1C[C@H](N2CCOCC2)[C@@H]2OCCC[C@@H]21 | -1.61 |
| Cc1nc(CN2CCO[C@@H]3CN(C(=O)CC4CC4)CC[C@@H]3C2)cs1 | -13.3 |
| Cc1occc1CNC(=O)N(CCCO)C1CCc2ccccc21 (stereo unspecified) | -1.74 |
| CCc1nc(C2CCCN(C(=O)c3cnn(CC)c3)C2)no1 (stereo unspecified) | 2.05 |
| COCCn1ccnc1CN(Cc1ccccn1)Cc1sccc1C | -7.84 |
| CC(C)CN1C(=O)C2(CCCC2)NC1c1cccnc1 (stereo unspecified) | 17.9 |

| SMILES | cytotoxicity at 70.5 h [%] |
| --- | --- |
| CCN(CCn1cccn1)C(=O)CN1C(=O)OC[C@@H]1c1ccccc1 | -6.78 |
| Fc1cccnc1N1CCOCC2(CCCNC2)C1 (stereo unspecified) | 0.635 |
| Cc1cc(C)n(C2CCN(c3ncnc4sc5c(c34)CCNC5)C2)n1 (stereo unspecified) | -18.5 |
| CC(C)CCC(=O)N1CCN(C(=O)c2ccc3nccn3c2)CC1 | 15.2 |
| O=C(N1CCOCC1)[C@@]12CCO[C@@H]1CCN(C1CCC1)C2 | 46 |
| Cc1cc(F)ccc1-c1cc(NCCO)nc2[nH]ccc12 | 0.963 |
| CCc1cccc(C)c1NC(=O)c1ccccc1N(C)S(C)(=O)=O | 26.1 |
| COCC1CC2(CCN(c3cccc(C)n3)CC2)CN1C(C)C (stereo unspecified) | -8.05 |
| CC(C)NC(=O)C1CN(C(=O)Nc2cccc(F)c2)CC12CCOCC2 (stereo unspecified) | -6.98 |
| CC(C)(C)n1cc(NCc2cscn2)cn1 | -6.29 |
| O=C1N[C@@H]2CCN(C(=O)C3CC3)[C@@H]2C(=O)N1c1ccccc1 | -10.7 |
| Cc1nc(CN2CCCCC2Cn2cccn2)nc2ccccc12 (stereo unspecified) | -5.42 |
| Cc1ccc(S(=O)(=O)NCCNC(=O)c2cncnc2C)cc1 | -2.92 |
| c1cc(CNCc2ccnc(N3CCOCC3)c2)c2c(c1)OCCCO2 | -9.7 |
| CCC/C=C/c1ccc(CN2CCCC2)cn1 | 48.4 |
| COc1ccc(CNC(=O)c2ccc(=O)n(C)c2)cc1C | -9.61 |
| Cc1ncc(C(=O)Nc2cncnc2N(C)C)c(Cl)c1Cl | -9.76 |
| CCCN1CCC(c2nc3ccc(NCc4ccccc4)cn3n2)CC1 | -1.96 |
| COc1nc(N2CCN(C(C)=O)CC2)ncc1Br | -3.12 |
| COCC1Cn2nnc(-c3cnn(C)c3)c2CN1Cc1ccc(C)s1 (stereo unspecified) | 4.51 |
| CCCc1cc(CN(C)C2CC(C)(C)NC(C)(C)C2)n[nH]1 | -4.42 |
| CC(NC(=O)C1CCCC1)c1nncn1C(C)C (stereo unspecified) | 9.12 |
| O=C(NCc1ccon1)c1c(F)cc(Br)cc1F | -3.14 |

| SMILES | cytotoxicity at 70.5 h [%] |
| --- | --- |
| CCC(=O)NCC(=O)NCC(C)(C)c1cccc(Br)c1 | -5.47 |
| CCc1nnc2n1CCN(CC(=O)N(CC)C1=CCCCC1)C2 | 14.1 |
| O=C(N1CCOCC1)[C@@]12CCO[C@@H]1CCN(Cc1ccccc1F)C2 | -9.82 |
| CN(C)C(=O)CC1CC2(CCN(Cc3cccs3)CC2)c2ccccc21 (stereo unspecified) | -20 |
| CN(c1ncnc2ccccc12)C1CCCN(c2cccnn2)C1 (stereo unspecified) | -12.6 |
| COC(=O)c1cccc(C(=O)N(CCC#N)CC(C)(C)C)c1 | 1.22 |
| COc1ccc(CN2CCCC3(CCN(c4ccsc4)C3=O)C2)cc1 (stereo unspecified) | 2.29 |
| COCCO[C@@H]1CCN(C(=O)c2ccnnc2)[C@H]1Cc1cnn(C)c1 | -116 |
| Cn1ccnc1CCNC(=O)C1CCCN(Cc2cccc(F)c2)C1 (stereo unspecified) | -7.53 |
| Cc1ccccc1CC(=O)N1C[C@@H](O)[C@H](N2CCOCC2)C1 | 3.85 |
| CCS(=O)(=O)NCC(Cc1cccc(F)c1)N1CCNC1=O (stereo unspecified) | 6.34 |
| O=C(c1ccsc1)N1CCc2c(COCC3CC3)cncc2C1 | 18.9 |
| O=C(CN(C1=NCCCCC1)c1ccc(Cl)cc1)c1ccccc1 | 10.9 |
| CCCC(=O)N1CCCN(C(=O)Nc2ccc(C)s2)CC1 | -4.08 |
| Cn1cc(C(=O)N2CCCC(CN3CCCC3=O)C2)cn1 (stereo unspecified) | -7.83 |
| COCCOC(=O)N1CC2=CC(C)(C)COc3ccc(OC)c(c32)C1 | -1.64 |
| O=C(CCCn1cncn1)N1CCC2(CCCNC2=O)C1 (stereo unspecified) | 0.299 |
| CC(C)CC(=O)N1CCC2(CC1)[C@@H]1CN(C(=O)N(C)C)C[C@@H]1C(=O)N2C | -3.34 |
| CCCNCc1cc2c(C)cc(C)cc2n2c(=O)n(C)nc12 | -8.78 |
| c1cncc(O[C@H]2COCCN(C3CCC3)C2)c1 | 1.49 |
| CCc1ccc(C2COCCN2C(=O)Nc2cccc(C(C)=O)c2)o1 (stereo unspecified) | -1.25 |
| Cc1cc(C(N)=O)c(N2C[C@@H](C)[C@@](C)(O)C2)nc1C | -7.31 |
| Cn1ccnc1C(NCc1csc(Br)c1)c1ccccc1 (stereo unspecified) | -1.31 |

| SMILES | cytotoxicity at 70.5 h [%] |
| --- | --- |
| Cc1csc2ncn(C(C)Cc3cccnc3)c(=O)c12 (stereo unspecified) | -4.53 |
| CCOc1ccccc1C(=O)NC(CC(=O)O)c1cccs1 (stereo unspecified) | -6.28 |
| CCN1CCCN(C(=O)c2cnc(OC(C)C)c(Cl)c2)CC1 | 9.31 |
| CCCn1nc2c(cc1=O)CN(CCN1CCCC1=O)CC2 | -10.7 |
| CNc1ncc(CN(C)C(=O)c2cccc(Cn3cccn3)c2)cn1 | -6.97 |
| Cn1cccc1C(=O)NC[C@H]1C[C@@H]2CN(C(=O)c3ccco3)C[C@@H]2O1 | -1.72 |
| CC(C)(C)c1nnc2n1C(C(=O)N1CCOCC1)CC2 (stereo unspecified) | -14.7 |
| CCc1nc(C2CCCN2C(=O)c2csc(NC(C)=O)n2)no1 (stereo unspecified) | -1.48 |
| COc1ncccc1C(Cc1ccsc1)NC(=O)Cn1cccnc1=O (stereo unspecified) | 22.1 |
| NC(=O)c1ccnc(N2CCCC(CO)(Cc3ccccc3)C2)c1 (stereo unspecified) | -5.88 |
| COc1cc(C)c2c(c1C)C[C@@H](C(C)C(=O)O)CC2 (stereo partly specified) | -3.12 |
| Cn1c2c(ccc1=O)CC(NS(C)(=O)=O)CC2 (stereo unspecified) | 27.8 |
| Cc1noc(CCCNC(=O)N2CCc3ccccc3C2CO)n1 (stereo unspecified) | 14.9 |
| Cc1cc(C(=O)N2CC[C@]3(C[C@@H](OCc4ccccn4)CO3)C2)c(C)o1 | 17.1 |
| CN(C)C(=O)N1CCN(CCCc2ccccc2)[C@H]2CS(=O)(=O)C[C@H]21 | -1.41 |
| Cc1cc(C(=O)N2CC[C@H]3[C@H]2CCN3S(C)(=O)=O)c(C)o1 | 0.739 |
| O=C(c1ccc2[nH]c(=O)[nH]c2c1)N1CCC(Nc2cccnn2)CC1 | -9.22 |
| Cc1cnc(CN(C)C2CCN(Cc3nc4c(F)cccc4[nH]3)C2)o1 (stereo unspecified) | 1.64 |
| CCc1nccn1C1CCCN(C(=O)c2ccc3nnc(C)n3c2)C1 (stereo unspecified) | -2.12 |
| CC1CCc2nc(O)c(C(=O)NCc3ccncc3)cc2C1 (stereo unspecified) | 5.88 |
| CCCC1CCN(C(=O)c2coc(COc3ccc(OC)cc3)n2)C1 (stereo unspecified) | -3.1 |
| Cn1ncc(NC(=O)Cn2ccc(-c3cccc(F)c3)n2)n1 | 1.6 |
| Cc1cc(NCC(=O)N(C)Cc2cccs2)c(C(N)=O)cc1F | 0.052 |

| SMILES | cytotoxicity at 70.5 h [%] |
| --- | --- |
| CC(=O)N1CCC2(CCN(CC(C)C)C2)C1 (stereo unspecified) | -5.21 |
| CCNS(=O)(=O)c1ccc(C)c(C(=O)N(C)Cc2ccccc2C)c1 | 2.99 |
| O=C(Nc1ccc2ncccc2c1)C1CC(=O)N(Cc2ccccn2)C1 (stereo unspecified) | -4.54 |
| Cc1ccc(CN(C)Cc2cnc(N3CCOCC3)s2)o1 | 22.4 |
| CC1(C)CN(C(=O)c2cnc(-c3ccccn3)nc2)CC[C@]1(C)O | 0.152 |
| Cc1ccc(Cl)cc1NC(=O)C1CSc2ncc(C)c(=O)n2C1 (stereo unspecified) | -13.9 |
| CCc1nc(CCNc2ncccc2S(N)(=O)=O)sc1C | 1.18 |
| CSc1ccc(-c2nc(CN3CCC(NC(C)=O)CC3)c(C)o2)cc1 | -7.12 |
| COCC(NC(=O)c1cn(-c2cccc(Cl)c2F)nn1)C1CC1 (stereo unspecified) | -0.579 |
| CN(C)C(=O)N1CC[C@]2(O)CCN(C(=O)c3ccc(C#N)nc3)C[C@@H]2C1 | 3.74 |
| Cc1nc(-c2ccncc2)ncc1C(C)NC(=O)CN1CCCCC1 (stereo unspecified) | -7.41 |
| Cc1nn(C)c(C)c1C(C)NC(=O)Nc1cccnc1N1CCCC1 (stereo unspecified) | -15.8 |
| Cc1cccc(NC(=O)c2nn(C3CCS(=O)(=O)C3)c3c2CCCC3)n1 (stereo unspecified) | -27.2 |
| Cc1cccc(OC2CCN(c3nccnc3C#N)CC2)n1 | 4.46 |
| Cc1cc(C)n(C2CCCN(C(=O)c3cn4cccnc4n3)C2)n1 (stereo unspecified) | -6.47 |
| O=C(CC(F)(F)F)N1C[C@H]2CC[C@@H]1CN(Cc1ccccc1)C2 | -3.61 |
| Cn1ccnc1CN1C(=O)CO[C@H]2CN(CCCc3ccccc3)C[C@H]21 | -1.68 |
| Cc1ccc(CN2CCN(c3cc(NCCO)ncn3)CC2CCO)o1 (stereo unspecified) | -5.58 |
| CC(C)OC[C@H]1CCC[C@]12CN(S(=O)(=O)c1cn(C)cn1)CCO2 | -4.1 |
